Data as given in article PMC9030254, “Target Hopping from Protein Kinases to PXR: Identification of Small-Molecule Protein Kinase Inhibitors as Selective Modulators of Pregnane X Receptor from TüKIC Library” (Cells, 2022).

Experiments:
Experiment in all cases: Kinase profiling
Format in all cases: biochemical
DYRK4 = biological target: T1, DYRK4 (Homo sapiens, UniProt Q9NR20)
T1 construct: purchased ProQinase (Freiburg, Germany)
T1 sequence (Q9NR20 1-520): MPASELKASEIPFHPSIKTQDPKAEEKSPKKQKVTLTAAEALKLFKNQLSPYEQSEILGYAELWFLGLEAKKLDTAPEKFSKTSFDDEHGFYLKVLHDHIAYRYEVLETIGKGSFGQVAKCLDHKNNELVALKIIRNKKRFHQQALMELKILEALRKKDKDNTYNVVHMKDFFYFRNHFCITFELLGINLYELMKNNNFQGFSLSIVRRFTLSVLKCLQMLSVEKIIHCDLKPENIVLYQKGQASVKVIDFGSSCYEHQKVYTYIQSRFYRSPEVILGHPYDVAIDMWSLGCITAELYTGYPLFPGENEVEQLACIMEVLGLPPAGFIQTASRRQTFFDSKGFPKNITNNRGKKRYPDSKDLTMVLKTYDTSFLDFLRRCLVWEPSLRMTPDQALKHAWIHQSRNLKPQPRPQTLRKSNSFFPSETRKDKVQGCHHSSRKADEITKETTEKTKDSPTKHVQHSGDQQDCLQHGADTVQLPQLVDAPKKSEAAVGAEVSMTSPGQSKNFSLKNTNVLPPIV
Experimental: (§1) The analysis was performed by ProQinase (Freiburg, Germany).

MEK2 = biological target: T2, MEK2 (Homo sapiens, UniProt P36507)
T2 construct: purchased ProQinase (Freiburg, Germany)
Experimental: as §1

CDK2/CycD1 = biological target: T3, CDK2/CycD1 (Homo sapiens, UniProt P24941)
T3 construct: purchased ProQinase (Freiburg, Germany)
Experimental: as §1

CDK4/CycD1 = biological target: T4, CDK4/CycD1 (Homo sapiens, UniProt P11802)
T4 construct: purchased ProQinase (Freiburg, Germany)
Experimental: as §1

ERBB2 = biological target: T5, ERBB2 (Homo sapiens, UniProt P04626)
T5 construct: purchased ProQinase (Freiburg, Germany)
Experimental: as §1

NEK4 = biological target: T6, NEK4 (Homo sapiens, UniProt P51957)
T6 construct: purchased ProQinase (Freiburg, Germany)
Experimental: as §1

ALK = biological target: T7, ALK (Homo sapiens, UniProt Q9UM73)
T7 construct: purchased ProQinase (Freiburg, Germany)
Experimental: as §1

TTBK1 = biological target: T8, TTBK1 (Homo sapiens, UniProt Q5TCY1)
T8 construct: purchased ProQinase (Freiburg, Germany)
Experimental: as §1

MAP3K10 = biological target: T9, MAP3K10 (Homo sapiens, UniProt Q02779)
T9 construct: purchased ProQinase (Freiburg, Germany)
Experimental: as §1

TLK1 = biological target: T10, TLK1 (Homo sapiens, UniProt Q9UKI8)
T10 construct: purchased ProQinase (Freiburg, Germany)
T10 sequence (Q9UKI8 1-766): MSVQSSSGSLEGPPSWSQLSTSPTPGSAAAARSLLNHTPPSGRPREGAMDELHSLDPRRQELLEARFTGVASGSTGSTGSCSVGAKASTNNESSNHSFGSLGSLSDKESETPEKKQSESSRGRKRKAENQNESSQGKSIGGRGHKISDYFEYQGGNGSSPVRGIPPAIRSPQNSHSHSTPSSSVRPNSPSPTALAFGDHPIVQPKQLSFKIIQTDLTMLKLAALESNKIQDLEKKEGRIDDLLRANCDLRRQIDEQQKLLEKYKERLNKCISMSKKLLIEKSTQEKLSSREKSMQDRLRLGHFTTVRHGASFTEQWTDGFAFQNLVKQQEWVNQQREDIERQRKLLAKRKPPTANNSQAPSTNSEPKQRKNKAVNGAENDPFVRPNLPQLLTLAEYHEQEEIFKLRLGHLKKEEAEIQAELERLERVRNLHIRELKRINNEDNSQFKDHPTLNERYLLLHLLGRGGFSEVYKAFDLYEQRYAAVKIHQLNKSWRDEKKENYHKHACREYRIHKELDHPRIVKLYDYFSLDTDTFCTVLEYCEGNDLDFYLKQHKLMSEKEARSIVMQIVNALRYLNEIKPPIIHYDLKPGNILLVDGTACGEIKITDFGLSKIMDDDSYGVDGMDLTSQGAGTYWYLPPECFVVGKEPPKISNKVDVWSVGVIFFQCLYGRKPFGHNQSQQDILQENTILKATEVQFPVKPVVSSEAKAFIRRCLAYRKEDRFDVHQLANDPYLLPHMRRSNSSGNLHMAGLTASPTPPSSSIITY
Experimental: as §1

MAP3K11 = biological target: T11, MAP3K11 (Homo sapiens, UniProt Q16584)
T11 construct: purchased ProQinase (Freiburg, Germany)
Experimental: as §1

TGFBR2 = biological target: T12, TGFBR2 (Homo sapiens, UniProt P37173)
T12 construct: purchased ProQinase (Freiburg, Germany)
Experimental: as §1

RIPK4 = biological target: T13, RIPK4 (Homo sapiens, UniProt P57078)
T13 construct: purchased ProQinase (Freiburg, Germany)
T13 sequence (P57078 1-832): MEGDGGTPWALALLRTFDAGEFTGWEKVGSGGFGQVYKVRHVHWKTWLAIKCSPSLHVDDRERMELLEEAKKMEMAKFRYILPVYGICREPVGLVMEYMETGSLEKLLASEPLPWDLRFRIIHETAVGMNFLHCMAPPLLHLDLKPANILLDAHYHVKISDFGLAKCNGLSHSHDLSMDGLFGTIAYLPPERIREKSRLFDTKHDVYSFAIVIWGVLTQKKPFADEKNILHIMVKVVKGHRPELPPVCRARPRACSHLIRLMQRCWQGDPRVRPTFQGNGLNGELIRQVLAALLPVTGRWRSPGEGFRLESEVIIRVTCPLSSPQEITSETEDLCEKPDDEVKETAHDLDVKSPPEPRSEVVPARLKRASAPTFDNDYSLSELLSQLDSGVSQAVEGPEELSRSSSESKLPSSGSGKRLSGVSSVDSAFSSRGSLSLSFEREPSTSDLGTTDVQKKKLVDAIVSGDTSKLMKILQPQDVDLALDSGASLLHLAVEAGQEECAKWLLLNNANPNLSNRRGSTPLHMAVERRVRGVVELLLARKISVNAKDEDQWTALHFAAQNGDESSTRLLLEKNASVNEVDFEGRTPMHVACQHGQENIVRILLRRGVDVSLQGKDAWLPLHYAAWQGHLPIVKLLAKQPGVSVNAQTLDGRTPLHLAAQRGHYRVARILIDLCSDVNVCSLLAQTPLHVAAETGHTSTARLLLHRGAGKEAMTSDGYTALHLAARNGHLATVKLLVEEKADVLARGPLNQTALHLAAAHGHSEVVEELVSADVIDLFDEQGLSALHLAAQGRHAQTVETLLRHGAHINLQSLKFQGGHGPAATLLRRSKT
Experimental: as §1

T6 sequence (P51957 whole entry): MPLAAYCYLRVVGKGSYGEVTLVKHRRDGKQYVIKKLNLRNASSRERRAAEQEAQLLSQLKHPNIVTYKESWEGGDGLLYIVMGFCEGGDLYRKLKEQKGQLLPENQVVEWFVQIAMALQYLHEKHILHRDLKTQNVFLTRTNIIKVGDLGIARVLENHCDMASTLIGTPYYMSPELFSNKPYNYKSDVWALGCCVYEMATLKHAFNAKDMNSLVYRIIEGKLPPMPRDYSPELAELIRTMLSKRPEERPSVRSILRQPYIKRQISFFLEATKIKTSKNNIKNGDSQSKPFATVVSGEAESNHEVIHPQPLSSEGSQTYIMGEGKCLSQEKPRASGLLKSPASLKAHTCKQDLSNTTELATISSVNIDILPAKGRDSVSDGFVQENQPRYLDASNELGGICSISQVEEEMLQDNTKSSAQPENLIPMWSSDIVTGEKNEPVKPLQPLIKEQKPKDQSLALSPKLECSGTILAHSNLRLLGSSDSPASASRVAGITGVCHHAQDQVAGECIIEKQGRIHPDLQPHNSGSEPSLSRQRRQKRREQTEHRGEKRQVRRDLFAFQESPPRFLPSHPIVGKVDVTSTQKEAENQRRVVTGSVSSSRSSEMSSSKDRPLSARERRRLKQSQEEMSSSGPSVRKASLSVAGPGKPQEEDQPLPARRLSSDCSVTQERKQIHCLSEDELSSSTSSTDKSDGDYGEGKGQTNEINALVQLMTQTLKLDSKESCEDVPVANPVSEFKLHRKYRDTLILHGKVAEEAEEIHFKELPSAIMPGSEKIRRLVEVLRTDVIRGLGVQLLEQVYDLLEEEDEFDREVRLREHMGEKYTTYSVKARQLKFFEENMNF
T7 sequence (Q9UM73 19-1620): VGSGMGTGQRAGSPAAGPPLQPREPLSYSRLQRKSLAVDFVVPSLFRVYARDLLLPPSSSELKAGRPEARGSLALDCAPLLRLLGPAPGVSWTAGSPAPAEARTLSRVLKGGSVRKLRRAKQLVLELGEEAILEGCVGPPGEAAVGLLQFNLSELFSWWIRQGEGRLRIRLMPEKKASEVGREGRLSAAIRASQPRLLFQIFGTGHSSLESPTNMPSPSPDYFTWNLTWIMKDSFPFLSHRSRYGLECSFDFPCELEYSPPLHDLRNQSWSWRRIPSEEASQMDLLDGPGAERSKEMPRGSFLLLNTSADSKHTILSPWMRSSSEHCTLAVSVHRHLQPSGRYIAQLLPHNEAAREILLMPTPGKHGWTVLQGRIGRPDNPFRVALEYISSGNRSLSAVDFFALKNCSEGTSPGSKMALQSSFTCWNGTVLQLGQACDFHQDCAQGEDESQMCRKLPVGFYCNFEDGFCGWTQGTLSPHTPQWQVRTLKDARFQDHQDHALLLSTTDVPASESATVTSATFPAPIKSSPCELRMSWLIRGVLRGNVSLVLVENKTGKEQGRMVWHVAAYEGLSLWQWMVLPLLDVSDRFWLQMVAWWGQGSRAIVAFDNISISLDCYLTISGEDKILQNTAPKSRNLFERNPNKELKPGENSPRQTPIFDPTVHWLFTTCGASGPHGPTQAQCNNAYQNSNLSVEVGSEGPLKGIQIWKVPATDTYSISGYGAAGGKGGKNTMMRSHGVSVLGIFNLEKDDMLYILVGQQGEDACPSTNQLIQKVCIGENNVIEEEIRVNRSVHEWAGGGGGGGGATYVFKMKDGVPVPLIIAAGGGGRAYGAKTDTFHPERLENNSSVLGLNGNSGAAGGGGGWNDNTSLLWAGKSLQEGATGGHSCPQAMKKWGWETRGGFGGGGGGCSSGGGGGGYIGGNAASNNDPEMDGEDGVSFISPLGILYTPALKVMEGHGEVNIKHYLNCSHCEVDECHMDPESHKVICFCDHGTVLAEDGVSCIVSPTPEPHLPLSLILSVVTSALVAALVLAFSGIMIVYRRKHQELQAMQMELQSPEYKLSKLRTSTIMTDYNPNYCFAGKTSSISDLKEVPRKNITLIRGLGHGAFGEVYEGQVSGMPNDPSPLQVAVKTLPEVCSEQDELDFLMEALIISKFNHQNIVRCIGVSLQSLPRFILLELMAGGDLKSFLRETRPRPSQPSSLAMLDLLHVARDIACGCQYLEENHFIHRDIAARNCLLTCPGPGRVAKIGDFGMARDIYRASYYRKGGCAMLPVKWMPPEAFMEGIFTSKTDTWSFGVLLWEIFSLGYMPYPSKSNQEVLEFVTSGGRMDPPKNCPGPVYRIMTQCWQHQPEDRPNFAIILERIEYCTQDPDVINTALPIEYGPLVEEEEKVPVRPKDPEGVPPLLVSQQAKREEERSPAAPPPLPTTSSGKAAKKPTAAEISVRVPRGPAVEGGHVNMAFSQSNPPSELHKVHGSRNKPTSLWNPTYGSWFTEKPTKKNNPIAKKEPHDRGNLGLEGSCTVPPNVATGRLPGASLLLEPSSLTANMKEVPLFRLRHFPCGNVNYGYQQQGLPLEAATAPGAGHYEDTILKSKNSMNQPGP
T2 sequence (P36507 whole entry): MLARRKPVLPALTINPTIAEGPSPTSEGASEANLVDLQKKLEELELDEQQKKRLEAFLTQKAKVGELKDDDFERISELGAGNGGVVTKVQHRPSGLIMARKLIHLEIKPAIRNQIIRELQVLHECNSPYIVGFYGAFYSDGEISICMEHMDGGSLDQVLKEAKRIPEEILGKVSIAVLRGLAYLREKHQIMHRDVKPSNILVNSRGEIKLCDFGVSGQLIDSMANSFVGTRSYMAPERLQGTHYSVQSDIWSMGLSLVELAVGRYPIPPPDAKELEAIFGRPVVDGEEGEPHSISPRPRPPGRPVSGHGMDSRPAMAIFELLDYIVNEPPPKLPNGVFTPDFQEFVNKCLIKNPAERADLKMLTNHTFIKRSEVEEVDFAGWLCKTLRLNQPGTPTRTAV
T11 sequence (Q16584 whole entry): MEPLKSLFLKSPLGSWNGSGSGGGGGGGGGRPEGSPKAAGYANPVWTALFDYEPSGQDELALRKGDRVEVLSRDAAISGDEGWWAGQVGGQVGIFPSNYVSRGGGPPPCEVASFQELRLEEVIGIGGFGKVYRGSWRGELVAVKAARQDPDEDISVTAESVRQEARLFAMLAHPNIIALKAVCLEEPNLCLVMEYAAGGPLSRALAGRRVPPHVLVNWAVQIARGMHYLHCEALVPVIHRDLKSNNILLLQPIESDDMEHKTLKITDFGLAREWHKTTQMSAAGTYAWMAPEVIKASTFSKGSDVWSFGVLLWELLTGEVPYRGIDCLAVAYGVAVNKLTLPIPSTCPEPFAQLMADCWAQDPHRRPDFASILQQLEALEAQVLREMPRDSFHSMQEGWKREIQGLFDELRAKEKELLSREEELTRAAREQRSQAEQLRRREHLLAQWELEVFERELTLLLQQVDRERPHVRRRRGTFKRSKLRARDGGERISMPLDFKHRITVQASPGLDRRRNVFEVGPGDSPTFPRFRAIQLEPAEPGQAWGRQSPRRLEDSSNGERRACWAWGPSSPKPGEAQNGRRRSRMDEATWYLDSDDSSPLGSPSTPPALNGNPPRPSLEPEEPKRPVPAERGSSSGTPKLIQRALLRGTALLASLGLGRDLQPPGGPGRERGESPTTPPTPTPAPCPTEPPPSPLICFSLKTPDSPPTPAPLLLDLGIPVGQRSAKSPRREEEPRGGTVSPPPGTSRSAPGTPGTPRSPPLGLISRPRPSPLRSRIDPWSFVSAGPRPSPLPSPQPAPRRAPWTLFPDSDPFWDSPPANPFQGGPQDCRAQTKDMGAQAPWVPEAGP
T9 sequence (Q02779 whole entry): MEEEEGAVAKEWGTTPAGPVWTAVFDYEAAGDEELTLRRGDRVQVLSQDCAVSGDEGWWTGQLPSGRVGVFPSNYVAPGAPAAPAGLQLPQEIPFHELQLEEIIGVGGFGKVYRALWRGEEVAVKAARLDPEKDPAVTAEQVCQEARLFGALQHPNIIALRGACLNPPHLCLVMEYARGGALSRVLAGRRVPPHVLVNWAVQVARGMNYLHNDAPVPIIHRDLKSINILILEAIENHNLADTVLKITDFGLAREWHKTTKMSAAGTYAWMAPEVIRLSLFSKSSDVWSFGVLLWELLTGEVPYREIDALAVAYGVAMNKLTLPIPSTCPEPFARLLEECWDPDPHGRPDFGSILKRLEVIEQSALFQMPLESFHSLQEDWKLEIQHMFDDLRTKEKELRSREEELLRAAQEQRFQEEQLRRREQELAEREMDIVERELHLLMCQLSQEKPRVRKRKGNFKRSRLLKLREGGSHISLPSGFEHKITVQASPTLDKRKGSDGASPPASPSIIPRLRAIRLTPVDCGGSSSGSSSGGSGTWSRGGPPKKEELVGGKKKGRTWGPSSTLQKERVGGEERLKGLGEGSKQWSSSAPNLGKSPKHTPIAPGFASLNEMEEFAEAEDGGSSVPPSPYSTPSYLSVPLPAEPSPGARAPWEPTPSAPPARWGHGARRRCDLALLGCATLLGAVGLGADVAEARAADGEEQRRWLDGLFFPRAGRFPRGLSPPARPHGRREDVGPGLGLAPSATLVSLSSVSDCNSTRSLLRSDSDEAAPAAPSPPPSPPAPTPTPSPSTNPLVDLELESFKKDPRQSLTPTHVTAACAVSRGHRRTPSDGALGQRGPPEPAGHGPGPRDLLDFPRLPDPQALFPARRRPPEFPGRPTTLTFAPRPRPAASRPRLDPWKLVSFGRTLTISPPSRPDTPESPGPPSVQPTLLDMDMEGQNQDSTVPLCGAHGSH

Row | SMILES | Residual activity (DYRK4; 1.0E-05 M) | Residual activity (DYRK4; 1.0E-06 M) | Residual activity (MEK2; 1.0E-05 M) | Residual activity (MEK2; 1.0E-06 M) | Residual activity (CDK2/CycD1; 1.0E-05 M) | Residual activity (CDK2/CycD1; 1.0E-06 M) | Residual activity (CDK4/CycD1; 1.0E-05 M) | Residual activity (CDK4/CycD1; 1.0E-06 M) | Residual activity (ERBB2; 1.0E-05 M) | Residual activity (ERBB2; 1.0E-06 M) | Residual activity (NEK4; 1.0E-05 M) | Residual activity (NEK4; 1.0E-06 M) | Residual activity (ALK; 1.0E-05 M) | Residual activity (ALK; 1.0E-06 M) | Residual activity (TTBK1; 1.0E-05 M) | Residual activity (TTBK1; 1.0E-06 M) | Residual activity (MAP3K10; 1.0E-05 M) | Residual activity (MAP3K10; 1.0E-06 M) | Residual activity (TLK1; 1.0E-05 M) | Residual activity (TLK1; 1.0E-06 M) | further results
1 | O=C(Nc1ccc(F)c(Nc2ccc3c(c2)CCCCC3=O)c1)c1cccc(F)c1 [Compound 109] | 87 % of control | 89 % of control | 89 % of control | 100 % of control | 87 % of control | 106 % of control | 108 % of control | 93 % of control | 86 % of control | 99 % of control | 94 % of control | 98 % of control | 92 % of control | 95 % of control | 115 % of control | 101 % of control | 91 % of control | 96 % of control | 114 % of control | 103 % of control | Residual activity (MAP3K11; 1.0E-05 M): 110 % of control; Residual activity (MAP3K11; 1.0E-06 M): 108 % of control; Residual activity (TGFBR2; 1.0E-05 M): 79 % of control; Residual activity (TGFBR2; 1.0E-06 M): 82 % of control; Residual activity (RIPK4; 1.0E-05 M): 100 % of control; Residual activity (RIPK4; 1.0E-06 M): 103 % of control
2 | O=C(Cc1ccccc1)Nc1ccc(F)c(Nc2ccc3c(c2)CCCCC3=O)c1 [Compound 100] | 94 % of control | 98 % of control | 88 % of control | 102 % of control | 119 % of control | 102 % of control | 94 % of control | 104 % of control | 79 % of control | 96 % of control | 81 % of control | 102 % of control | 72 % of control | 86 % of control | 126 % of control | 108 % of control | 84 % of control | 106 % of control | 131 % of control | 125 % of control | Residual activity (MAP3K11; 1.0E-05 M): 118 % of control; Residual activity (MAP3K11; 1.0E-06 M): 109 % of control; Residual activity (TGFBR2; 1.0E-05 M): 74 % of control; Residual activity (TGFBR2; 1.0E-06 M): 79 % of control; Residual activity (RIPK4; 1.0E-05 M): 98 % of control; Residual activity (RIPK4; 1.0E-06 M): 103 % of control
